Laboratory results taken from patent US8791132B2, “Compounds and methods for treatment of hypertension” (Medivation Technologies, Inc., priority 2011, dated 2014).
“And” between values parts separate entries of the source, which are not always exact repeats. Equal values may be shown once. Read-outs that look alike come from different tables or passages of the source. One block for each compound: values may come before it.

Legend:
[1] = molecular target: T1, rat adrenergic α1B receptor (Rattus norvegicus, UniProt P15823); assay: Radioligand binding, adrenergic α1B ([3H]Prazosin)
T1 construct: rat adrenergic α1B receptor obtained from Wistar Rat liver; from tissue; host or cells: Wistar rat liver
T1 sequence (P15823 1-515): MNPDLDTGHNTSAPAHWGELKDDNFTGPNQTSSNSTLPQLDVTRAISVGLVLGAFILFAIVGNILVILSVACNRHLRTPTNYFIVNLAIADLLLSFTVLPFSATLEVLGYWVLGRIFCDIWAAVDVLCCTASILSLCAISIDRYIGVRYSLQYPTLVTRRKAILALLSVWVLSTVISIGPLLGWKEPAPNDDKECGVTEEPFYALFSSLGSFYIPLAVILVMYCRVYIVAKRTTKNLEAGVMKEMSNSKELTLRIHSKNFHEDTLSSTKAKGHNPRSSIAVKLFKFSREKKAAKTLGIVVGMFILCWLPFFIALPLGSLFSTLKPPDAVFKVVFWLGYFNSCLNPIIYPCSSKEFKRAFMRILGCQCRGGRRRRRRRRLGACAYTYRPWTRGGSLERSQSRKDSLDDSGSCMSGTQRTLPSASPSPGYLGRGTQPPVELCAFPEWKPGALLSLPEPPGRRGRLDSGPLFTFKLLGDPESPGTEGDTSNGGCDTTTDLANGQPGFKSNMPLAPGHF
Outline: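 Incubation ran 60 min at 25 °C in Tris-HCl buffer (50 mM, pH 7.4, 0.5 mM EDTA) with Wistar rat liver α1B receptor. 10 μM phentolamine set non-specific binding.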

[2] = molecular target: T2, human recombinant adrenergic α1D receptor (Homo sapiens, UniProt P25100); assay: Radioligand binding, adrenergic α1D ([3H]Prazosin); details: for inhibition at 0.1 µM: [3H]Prazosin
T2 construct: expressed in transfected cells; host or cells: HEK-293
T2 sequence (P25100 1-572): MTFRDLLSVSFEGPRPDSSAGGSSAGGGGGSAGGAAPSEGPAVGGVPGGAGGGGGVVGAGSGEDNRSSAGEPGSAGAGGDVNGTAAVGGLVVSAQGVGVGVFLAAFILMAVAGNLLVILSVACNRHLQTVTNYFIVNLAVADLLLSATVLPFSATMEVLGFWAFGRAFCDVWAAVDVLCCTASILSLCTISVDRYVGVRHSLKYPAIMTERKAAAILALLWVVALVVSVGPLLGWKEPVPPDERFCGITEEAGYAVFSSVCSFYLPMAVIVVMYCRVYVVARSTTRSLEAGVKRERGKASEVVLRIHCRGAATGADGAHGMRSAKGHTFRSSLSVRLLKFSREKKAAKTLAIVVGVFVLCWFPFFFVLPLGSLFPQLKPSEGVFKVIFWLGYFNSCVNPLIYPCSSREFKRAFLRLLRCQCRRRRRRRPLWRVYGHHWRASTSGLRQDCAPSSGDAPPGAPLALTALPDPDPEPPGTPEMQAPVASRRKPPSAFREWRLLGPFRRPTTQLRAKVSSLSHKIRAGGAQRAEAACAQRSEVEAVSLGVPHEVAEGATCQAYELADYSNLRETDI
Method: Compounds were incubated with 0.6 nM [3H]Prazosin for 60 min at 25° C. Non-specific binding was estimated in the presence of 10 μM phentolamine. Receptor proteins were filtered and washed, the filters were then counted to determine [3H]Prazosin specifically bound. […] Biochemical assay results are presented as the percent inhibition of specific binding in Table B1.

[3] = molecular target: T3, human recombinant adrenergic α2A receptor (Homo sapiens, UniProt P08913); assay: Radioligand binding, adrenergic α2A ([3H]MK-912)
T3 construct: expressed in transfected cells; host or cells: insect Sf9 cells
T3 sequence (P08913 1-465): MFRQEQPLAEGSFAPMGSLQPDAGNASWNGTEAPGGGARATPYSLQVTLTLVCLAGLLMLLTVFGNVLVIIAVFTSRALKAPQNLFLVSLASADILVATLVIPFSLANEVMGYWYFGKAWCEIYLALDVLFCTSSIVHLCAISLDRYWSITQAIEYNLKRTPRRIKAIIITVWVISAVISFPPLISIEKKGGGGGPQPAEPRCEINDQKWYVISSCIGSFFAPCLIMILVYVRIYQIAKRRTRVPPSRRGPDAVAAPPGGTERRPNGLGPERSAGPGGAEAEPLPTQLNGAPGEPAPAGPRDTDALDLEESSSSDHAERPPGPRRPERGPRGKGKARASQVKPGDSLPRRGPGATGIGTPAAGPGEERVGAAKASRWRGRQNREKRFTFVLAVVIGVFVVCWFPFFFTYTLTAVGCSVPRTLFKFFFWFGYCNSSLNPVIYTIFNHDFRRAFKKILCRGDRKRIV
Outline: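 Sf9-expressed receptor was incubated with compound for 60 min at 25 °C in modified Tris-HCl buffer, pH 7.4. Nonspecific binding was taken as that remaining with 10 μM WB-4101.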

[4] = molecular target: T4, human recombinant adrenergic α2B receptor (Homo sapiens, UniProt P18089); assay: Radioligand binding, adrenergic α2B ([3H]Rauwolscine); details: [3H]Rauwolscine
T4 construct: expressed in transfected cells; host or cells: CHO-K1
T4 sequence (P18089 1-450): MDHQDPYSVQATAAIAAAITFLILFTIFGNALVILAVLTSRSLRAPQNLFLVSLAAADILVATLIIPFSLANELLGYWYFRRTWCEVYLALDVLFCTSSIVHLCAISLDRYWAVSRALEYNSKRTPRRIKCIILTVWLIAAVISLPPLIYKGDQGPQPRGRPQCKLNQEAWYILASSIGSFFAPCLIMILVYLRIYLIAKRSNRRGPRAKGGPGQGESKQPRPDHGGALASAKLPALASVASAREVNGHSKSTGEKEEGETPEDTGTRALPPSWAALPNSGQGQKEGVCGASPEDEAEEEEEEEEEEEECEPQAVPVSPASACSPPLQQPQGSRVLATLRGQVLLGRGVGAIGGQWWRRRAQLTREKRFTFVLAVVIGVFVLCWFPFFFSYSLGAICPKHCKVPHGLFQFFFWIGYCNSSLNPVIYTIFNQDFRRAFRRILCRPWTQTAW
Outline: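 Assay used CHO-K1-expressed human α2B receptor in Tris-HCl pH 7.4 buffer with MgCl2, EDTA and BSA; 60 min incubation at 25 °C.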

[5] = read-out: Percentage inhibition of ligand binding, Adrenergic α1B (0.1 μM), compound at 0.1 μM, [3H]Prazosin, repeat datapoints each shown
[6] = read-out: Percentage inhibition of ligand binding, Adrenergic α1D (0.1 μM), compound at 0.1 μM, repeat datapoints each shown
[7] = compound at 0.1 μM, [3H]Prazosin, repeat assays, each datapoint shown, 0.1 µM
[8] = compound at 0.1 μM, [3H]Prazosin, repeat assays, each datapoint shown, read-out: Percentage inhibition of ligand binding, Adrenergic α1B
[9] = compound at 0.03 μM, repeat assays, each datapoint shown, read-out: Percentage inhibition of ligand binding, Adrenergic α2B
[10] = compound at 0.1 μM, repeat assays, each datapoint shown, read-out: Percentage inhibition of ligand binding, Adrenergic α2B
[11] = compound at 0.1 μM, repeat assays, each datapoint shown, read-out: Percentage inhibition of ligand binding, Adrenergic α1D

SMILES: C/C(=C\n1c2c(c3cc(C)cnc31)CN(C)CC2)c1ccc(C)nc1 [compound 78]
Percentage inhibition of ligand binding, Adrenergic α1B [1, 7]: 12%
inhibition at 0.1 µM [1, 8]: 11%
inhibition at 0.03 µM [4, 9]: 67%
inhibition at 0.1 µM [4, 10]: 87%
inhibition at 0.1 µM [2, 11]: 22%

SMILES: Cc1ccc2c(c1)c1c(n2CCc2ccccc2)CCN(C)C1 [compound 200]
inhibition at 0.03 µM ([1]; read-out: Percentage inhibition of ligand binding, Adrenergic α1B (0.03 μM), compound at 0.03 μM, [3H]Prazosin, repeat datapoints each shown): 63%
inhibition at 0.1 µM [1, 5]: 83%
inhibition at 0.1 µM [2, 6]: 69%
Ki [3]: 1.63 nM and 3.21 nM
inhibition at 0.03 µM ([3]; read-out: Percentage inhibition of ligand binding, Adrenergic α2A (0.03 μM), compound at 0.03 μM, [3H]MK-912, repeat datapoints each shown): 81%
inhibition at 0.1 µM ([3]; read-out: Percentage inhibition of ligand binding, Adrenergic α2A (0.1 μM), compound at 0.1 μM, [3H]MK-912, repeat datapoints each shown): 92%

SMILES: Cc1cnc2c(c1)c1c(n2CCc2ccc(C)nc2)CCN2CCCC12 (stereo not drawn) [compound 74, 10-methyl-7-(2-(6-methylpyridin-3-yl)ethyl)-2,3,5,6,7,11c-hexahydro-1H-pyrido[3′,2′:4,5]pyrrolo[2,3-g]indolizine]
inhibition at 0.1 µM [4, 10]: 104%
inhibition at 0.1 µM [2, 11]: 57%
Percentage inhibition of ligand binding, Adrenergic α2A ([3]; compound at 0.1 μM, [3H]MK-912, repeat assays, each datapoint shown, 0.1 µM): 6%

SMILES: Cc1ccc2c(c1)c1c(n2CC(O)c2ccc(F)cc2)CCN(C)C1 (stereo not drawn) [compound 30]
inhibition at 0.1 µM [4, 10]: 91%
inhibition at 0.1 µM [2, 11]: 49%

SMILES: CCCCC(O)(Cn1c2c(c3cc(Cl)ccc31)CN(C)CC2)c1ccc(F)cc1 (stereo not drawn) [33a]
inhibition at 0.1 µM [2, 11]: 23%

SMILES: Cc1ccc2c(c1)c1c(n2C2=C(c3cn[nH]c3)CCC2)CCN(C)C1 [compound 77, 5-(2-(1H-pyrazol-4-yl)cyclopent-1-enyl)-2,8-dimethyl-2,3,4,5-tetrahydro-1H-pyrido[4,3-b]indole]
Percentage inhibition of ligand binding, Adrenergic α1B [1, 7]: 6%
inhibition at 0.1 µM [1, 8]: 5%
inhibition at 0.03 µM [4, 9]: 84%
inhibition at 0.1 µM [4, 10]: 91%
inhibition at 0.1 µM [2, 11]: 10%

More lines, now with the values ahead:

Percentage inhibition of ligand binding, Adrenergic α1B ([1]; 0.1 μM compound, 0.1 µM): 51%
Percentage inhibition of ligand binding, Adrenergic α1D ([2]; 0.1 μM compound, 0.1 µM): 57%
inhibition at 0.1 µM ([3]; 0.1 μM compound, read-out: Percentage inhibition of ligand binding, Adrenergic α2A): 60%
SMILES: Cc1ccc2c(c1)c1c(n2CC(C)c2ccc(C)nc2)CCN(C)C1 (single isomer, unassigned) [289a]

Percentage inhibition of ligand binding, Adrenergic α1B (0.1 μM) ([1]; compound at 0.1 μM, [3H]Prazosin, repeat datapoints each shown, 0.1 µM): 14%
inhibition at 0.1 µM [1, 5]: 7%
inhibition at 0.03 µM ([4]; read-out: Percentage inhibition of ligand binding, Adrenergic α2B (0.03 μM), compound at 0.03 μM, repeat datapoints each shown): 39%
inhibition at 0.1 µM ([4]; read-out: Percentage inhibition of ligand binding, Adrenergic α2B (0.1 μM), compound at 0.1 μM, repeat datapoints each shown): 35%
inhibition at 0.1 µM [2, 6]: 15%
SMILES: CCC(O)(Cn1c2c(c3cc(Cl)ccc31)CN(C)CC2)c1ccc(F)cc1 (stereo not drawn) [II-160]
